From patent US10434049B2, “Methods of producing compounds that stimulate hair regrowth, topical formulations, and methods of use” (Joventis S.A., priority 2013, dated 2019)

Assays:
Assay type in all cases: in vivo, human
hair growth [1] = assay: Six-month study of twenty volunteers, monthly self-reported hair growth questionnaires; conditions: for participants who noticed new hair growth: lotion applied to scalp at least once a day
Source text: In a systematic study of twenty volunteers, including 8 women, study participants self-reported hair regrowth metrics by answering questionnaires at the end of each month of treatment with Formula (I) over the course of six months. The mean age of participants was 54 years old (SD=11 years). Participants had no history of hair implants and had normal eating and sleeping patterns. Participants first read and signed an informed consent form in which they were informed about the hair regeneration product, a lotion comprising Formula (I). The information about Formula (I) included that Formula (I) was designed to increase hair growth, that it was based on natural compounds, and that use of the product would not lead to harmful effects. Participants received explicit instructions on how to use the product, were asked to apply the product at least once a day on their scalp, and were asked not to use any other hair growth or regeneration products for the 6-month duration of the study. […] During this session photos were taken to measure and count any increases in hair regrowth, and participants answered questionnaires that probed the effects using Formula (I). Questionnaires comprised 14 yes or no questions based on Barber's 1998 the hair growth questionnaire. Barber et al., A hair growth questionnaire for use in the evaluation of therapeutic effects in men, J. DERMATOLOGICAL TREATMENT, Vol. 9(3), pp. 181-86 (1998). The questions included: • Did you notice new hair growth during the past month? • Did you notice new hair growth since the start of treatment? • Did you notice any new hair loss during the past month? • Did you notice any new hair loss since the start of the treatment? • Did you notice more hair loss than before since the start of the treatment? • Did you notice that your hairs felt thicker during the past month? • Did you notice that your hairs felt thicker since the start of the treatment? • Did you notice that your hairs felt more healthy during the past month? • Did you notice that your hairs felt more healthy since the start of the treatment? • The tenth and eleventh questions asked whether hairs felt less fragile during the past month and since the start of the treatment. • The final questions asked whether participants had noticed their hair color increasing and whether it became less grey/white during the past month and since the start of the treatment.

hair growth [2] = assay: Six-month study, hair growth by digital analysis of photographs of a chosen spot
Source text: In a systematic study of twenty volunteers, including 8 women, study participants self-reported hair regrowth metrics by answering questionnaires at the end of each month of treatment with Formula (I) over the course of six months. The mean age of participants was 54 years old (SD=11 years). Participants had no history of hair implants and had normal eating and sleeping patterns. Participants first read and signed an informed consent form in which they were informed about the hair regeneration product, a lotion comprising Formula (I). The information about Formula (I) included that Formula (I) was designed to increase hair growth, that it was based on natural compounds, and that use of the product would not lead to harmful effects. Participants received explicit instructions on how to use the product, were asked to apply the product at least once a day on their scalp, and were asked not to use any other hair growth or regeneration products for the 6-month duration of the study. […] During this session photos were taken to measure and count any increases in hair regrowth, and participants answered questionnaires that probed the effects using Formula (I). […] Hair growth was measured by counting and estimating the total amount of thick/thin hairs on the specific spot, based on digital analysis of each photograph.

hair growth [3] = assay: Before/after photographs of individual subjects (FIG. 2, FIG. 11)
Source text: The subject in FIG. 2A starts out with a complete bald spot. […] Before treatment with Formula (I), the subject shown in FIG. 2C has dark, balding hair.

burn = assay: Burned hands of a lab technician, one hand treated, other untreated; conditions: treated for one month; untreated hand developed calluses
Method: Along these lines, a lab technician who burned both hands, and hair regrowth at the site of the burn was assessed. One hand was treated for one month with a composition comprising Formula (I), and the other hand was left untreated. […] The untreated hand developed calluses instead.

[4] = system: collagen in sun damaged skin; assay: Cosmetic collagen regeneration clinical trial, high-resolution ultrasound scanner images of skin; conditions: ultrasound images before and after treatment, sun damaged skin (FIG. 12A/12B)
Method: In yet further aspects of the inventive subject matter, cosmetic collagen regeneration effects of Formula (I) were assessed in a clinical trial run by Sempervivum, a medical esthetics company. Twenty-four volunteers (22 women and 2 men) participated in this study. Participants were on average 59 years old (Mean (M)=59 years, Standard Deviation (SD)=12 years). In this case, the age of the participants is 59 years with an average deviation of 12 years. Participants had no history of cosmetic surgery and stated to have normal eating and sleeping patterns. High-resolution ultrasound scanner images of collagen in sun damaged skin are shown in FIG. 12A (before treatment) and FIG. 12B (after treatment). […] It also appears that more interconnected collagen fibers are present in the dermis of the skin, and spots representing collagen seem to be more connected and closer to the epidermal layer.

[5] = over the course of treatment, questionnaires (FIG. 10)

Question: Which results are given for `CC1=CC2(C(C)C)CC(=C1)C2(C)C` (centres unmarked) [Formula (I), 3,6,6-trimethyl-5-(propan-2-yl)bicyclo[3.1.1]hepta-1,3-diene]?
Answer: participants who noticed new hair growth (hair growth [1]; after 1 month of treatment, self-reported): 47%; participants who noticed new hair growth (hair growth [1]; after 6 months of treatment, self-reported): 94%; participants who noticed an increase in hair loss (hair growth [1]; at some point during treatment, self-reported): 20%; overall effect on hair growth (hair growth [1]; conclusion from questionnaires and photo analyses, 6-month study): highly effective in stimulating hair growth; participants who noticed an increase in healthy hair, thicker hair and less fragile hair (hair growth [1]; during the last month of treatment and since the start of treatment, self-reported (FIG. 5)): 85-92%; hair color in participants with white/grey hair before treatment (hair growth [1]; last month of treatment and since start of treatment, self-reported (FIG. 6)): significant increase in color; amount of thick hair in participants with thin hair (hair growth [1]; over the course of treatment (FIG. 9)): significant increase in the amount of thick hair; amount of white hair in participants with white/grey hair (hair growth [1]; [5]): increased to a lesser extent; black hair as percent of total hair in participants with white/grey hair (hair growth [1]; [5]): increase in the percent of total hair that was black; participants who noticed that some new hairs fell out (hair growth [1]; over the whole course of the treatment, self-reported, alopecia patients excluded): 14%; increase in long fine and thick hairs in balding participants (hair growth [2]; after 6 months, photo analysis (FIG. 8)): triple to quadruple overall increases; hair growth in bald participants, including alopecia patients (hair growth [2]; photo analysis, participants initially with no hair at the probed place (FIG. 7)): both fine hairs and more thick hairs suddenly started to grow; hair regrowth at alopecia site, subject who lost all body hair after trauma (hair growth [3]; after 4 months of treatment (FIG. 11A/11B)): hair growth at the alopecia site; hair regrowth, subject with complete bald spot (hair growth [3]; after 6 months of treatment (FIG. 2A/2B)): white hair has grown into the bald spot; hair regrowth, subject with dark, balding hair (hair growth [3]; after 6 months of treatment (FIG. 2C/2D)): dark hair has begun to regrow; skin outcome of burned hand (burn): developed new smooth skin; collagen in skin after treatment [4]: significant increases in collagen
